pKi: −log10 of the molar value. Each block holds one molecule with its values, some of them ahead of it.
How the values were obtained:
Carbonic anhydrase 9 = Carbonic anhydrase 9 (Homo sapiens, UniProt Q16790)
[1] = Chemical stability of the compound in HEPES buffer assessed as compound remaining at 10 mg at pH 7.4 measured at 0 hr by HPLC method; format: physicochemical; settings: read-out: Stability
[2] = Chemical stability of the compound in HEPES buffer assessed as compound remaining at 10 mg at pH 7.4 measured at 24 hrs by HPLC method; format: physicochemical; settings: read-out: Stability
[3] = Chemical stability of the compound in HEPES buffer assessed as compound remaining at 10 mg at pH 7.4 measured at 3 hrs by HPLC method; format: physicochemical; settings: read-out: Stability
[4] = Chemical stability of the compound in HEPES buffer assessed as compound remaining at 10 mg at pH 7.4 measured at 5 hrs by HPLC method; format: physicochemical; settings: read-out: Stability
[5] = Chemical stability of the compound in HEPES buffer assessed as compound remaining at 10 mg at pH 7.4 measured at 10 hrs by HPLC method; format: physicochemical; settings: read-out: Stability
Carbonic anhydrase 1 = Carbonic anhydrase 1 (Homo sapiens, UniProt P00915)
Description: Inhibition of recombinant human cytosolic form of carbonic anhydrase-1 preincubated for 15 mins by stopped flow CO2 hydration assay

Carbonic anhydrase 12 = Carbonic anhydrase 12 (Homo sapiens, UniProt O43570)
Chain of Carbonic anhydrase 12 (O43570 whole entry): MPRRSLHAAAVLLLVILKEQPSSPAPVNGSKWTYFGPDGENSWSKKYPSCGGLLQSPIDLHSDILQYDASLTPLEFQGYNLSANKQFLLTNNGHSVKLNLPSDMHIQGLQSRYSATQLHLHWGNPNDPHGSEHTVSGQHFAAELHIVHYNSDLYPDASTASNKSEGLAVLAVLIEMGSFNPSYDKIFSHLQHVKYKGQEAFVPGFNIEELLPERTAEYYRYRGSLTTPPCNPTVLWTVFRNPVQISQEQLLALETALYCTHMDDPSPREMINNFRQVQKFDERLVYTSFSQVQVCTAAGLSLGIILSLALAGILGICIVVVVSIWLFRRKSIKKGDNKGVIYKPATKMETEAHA
Description: Inhibition of recombinant human transmembrane, tumor-associated form of carbonic anhydrase-12 preincubated for 15 mins by stopped flow CO2 hydration assay

Chain of Carbonic anhydrase 1 (P00915 whole entry): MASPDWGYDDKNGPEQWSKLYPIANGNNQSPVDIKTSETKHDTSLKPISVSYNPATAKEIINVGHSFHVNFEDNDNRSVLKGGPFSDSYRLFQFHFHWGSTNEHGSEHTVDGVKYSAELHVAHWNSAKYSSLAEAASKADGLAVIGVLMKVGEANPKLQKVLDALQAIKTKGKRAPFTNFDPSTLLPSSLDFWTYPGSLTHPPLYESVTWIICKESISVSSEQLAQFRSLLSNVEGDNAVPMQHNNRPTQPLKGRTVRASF

Structure (SMILES): NS(=O)(=O)c1ccc(CCNCc2ccccc2O)cc1
pKi (Carbonic anhydrase 9): 8.41

Structure (SMILES): NS(=O)(=O)c1ccc(CC/N=C\c2ccccc2)cc1
remaining at 0 h [1]: 100%
pKi (Carbonic anhydrase 9): 6.66
remaining at 24 h [2]: 14%
remaining at 3 h [3]: 100%
remaining at 5 h [4]: 89%
remaining at 10 h [5]: 51%

Structure (SMILES): NS(=O)(=O)c1ccc(CC/N=C\c2cc(Br)cc(Br)c2O)cc1
pKi (Carbonic anhydrase 9): 6.79

Structure (SMILES): NS(=O)(=O)c1ccc(CC/N=C\c2cc(Br)ccc2O)cc1
pKi (Carbonic anhydrase 9): 6.73

Structure (SMILES): NS(=O)(=O)c1ccc(CC/N=C\c2ccccc2O)cc1
pKi (Carbonic anhydrase 1): 6.41
pKi (Carbonic anhydrase 9): 6.86
pKi (Carbonic anhydrase 12): 7.33

Structure (SMILES): NS(=O)(=O)c1ccc(CC/N=C\c2ccc(OCc3ccccc3)cc2)cc1
pKi (Carbonic anhydrase 9): 6.64

Structure (SMILES): CN(C)c1ccc(/C=N\CCc2ccc(S(N)(=O)=O)cc2)cc1
pKi (Carbonic anhydrase 1): 6.34
pKi (Carbonic anhydrase 9): 7.41
pKi (Carbonic anhydrase 12): 5.51

Structure (SMILES): NS(=O)(=O)c1ccc(CC/N=C\c2cc(Cl)ccc2O)cc1
pKi (Carbonic anhydrase 9): 6.97

Structure (SMILES): COc1ccc(CNCCc2ccc(S(N)(=O)=O)cc2)cc1
pKi (Carbonic anhydrase 1): 8.34
remaining at 0 h [1]: 100%
remaining at 24 h [2]: 100%
pKi (Carbonic anhydrase 12): 7.42
remaining at 3 h [3]: 100%
remaining at 5 h [4]: 100%
remaining at 10 h [5]: 100%

Structure (SMILES): NS(=O)(=O)c1ccc(CC/N=C\c2cc(Cl)cc(Cl)c2O)cc1
pKi (Carbonic anhydrase 9): 6.72

Structure (SMILES): Cc1cccc(/C=N\CCc2ccc(S(N)(=O)=O)cc2)c1O
pKi (Carbonic anhydrase 9): 6.53

Structure (SMILES): COc1ccc(/C=N\CCc2ccc(S(N)(=O)=O)cc2)cc1
remaining at 0 h [1]: 100%
pKi (Carbonic anhydrase 9): 6.64
remaining at 24 h [2]: 8%
remaining at 3 h [3]: 100%
remaining at 5 h [4]: 72%
remaining at 10 h [5]: 43%

Structure (SMILES): CCN[C@H]1C[C@H](C)S(=O)(=O)c2sc(S(N)(=O)=O)cc21 [DORZOLAMIDE]
pKi (Carbonic anhydrase 12): 8.52

Structure (SMILES): Cc1ccc(/C=N\CCc2ccc(S(N)(=O)=O)cc2)cc1
pKi (Carbonic anhydrase 9): 6.91

Further lines, results first:

pKi (Carbonic anhydrase 9): 7.81
Structure (SMILES): NS(=O)(=O)c1ccc(CCNCc2cc(Cl)ccc2O)cc1

pKi (Carbonic anhydrase 9): 8.39
Structure (SMILES): NS(=O)(=O)c1ccc(CCNCc2cc(Br)cc(Br)c2O)cc1

pKi (Carbonic anhydrase 9): 7.99
Structure (SMILES): Cc1ccc(CNCCc2ccc(S(N)(=O)=O)cc2)cc1

pKi (Carbonic anhydrase 9): 8.37
Structure (SMILES): NS(=O)(=O)c1ccc(CCNCc2cc(Br)ccc2O)cc1

pKi (Carbonic anhydrase 9): 8.54
Structure (SMILES): NS(=O)(=O)c1ccc(CCNCc2ccc(OCc3ccccc3)cc2)cc1

pKi (Carbonic anhydrase 9): 8.43
Structure (SMILES): Cc1cccc(CNCCc2ccc(S(N)(=O)=O)cc2)c1O

remaining at 0 h [1]: 100%
pKi (Carbonic anhydrase 9): 8.37
remaining at 24 h [2]: 100%
pKi (Carbonic anhydrase 12): 8.20
remaining at 3 h [3]: 100%
remaining at 5 h [4]: 100%
remaining at 10 h [5]: 100%
Structure (SMILES): NS(=O)(=O)c1ccc(CCNCc2ccccc2)cc1

— ChEMBL document CHEMBL3421572, “Synthesis of Schiff base derivatives of 4-(2-aminoethyl)-benzenesulfonamide with inhibitory activity against carbonic anhydrase isoforms I, II, IX and XII” (Bioorg Med Chem Lett, 2015)
